Among the data in patent US10077241B2 (Janssen Pharmaceutica NV, priority 2014, dated 2018) are EC50 values, retold here.

In one experiment the target is T1, TGR5 (STC1 cell line) (Mus musculus, UniProt Q80SS6).
T1 sequence (Q80SS6 1-329): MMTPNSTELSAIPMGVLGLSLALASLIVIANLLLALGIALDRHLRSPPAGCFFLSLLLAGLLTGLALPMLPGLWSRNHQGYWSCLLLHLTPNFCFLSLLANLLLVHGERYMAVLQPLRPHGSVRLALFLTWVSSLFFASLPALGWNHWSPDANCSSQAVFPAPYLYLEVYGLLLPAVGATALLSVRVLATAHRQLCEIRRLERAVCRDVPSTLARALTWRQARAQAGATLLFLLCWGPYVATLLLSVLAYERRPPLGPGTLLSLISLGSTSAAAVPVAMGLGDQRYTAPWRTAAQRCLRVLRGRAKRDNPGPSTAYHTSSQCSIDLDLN
The experiment is described as follows: STC1 cAMP Agonist EC50 Determination.

The target in experiment [1] is T2, TGR5 (NCI-H716 cell line) (Homo sapiens, UniProt Q8TDU6).
T2 sequence (Q8TDU6 1-330): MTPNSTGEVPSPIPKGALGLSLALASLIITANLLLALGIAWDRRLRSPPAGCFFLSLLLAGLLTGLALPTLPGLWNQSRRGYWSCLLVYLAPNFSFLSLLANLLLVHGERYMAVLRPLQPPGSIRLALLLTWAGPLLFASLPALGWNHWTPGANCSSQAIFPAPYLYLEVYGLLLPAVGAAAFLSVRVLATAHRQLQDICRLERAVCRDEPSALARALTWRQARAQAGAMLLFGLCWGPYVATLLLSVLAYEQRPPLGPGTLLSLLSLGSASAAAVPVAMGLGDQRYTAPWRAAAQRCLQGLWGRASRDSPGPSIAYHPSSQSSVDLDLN
The experiment is described as follows: NCI-H716 cAMP Agonist EC50 Determination.

Description for TGR5 (STC1 cell line): Cell stocks were maintained and grown in a sub-confluent state using standard cell culture procedures. The day before the experiment, the cells were harvested with non-enzymatic cell dissociation buffer and resuspended in complete growth media at 4E5 c/ml. […] The seeded plates were incubated overnight at 37° C.
On the day of the experiment, Assay Buffer containing: HBSS with Ca^2+and Mg^2+; 5 μM HEPES; 0.1% BSA; and, 0.5 μM IBMX was prepared. The growth medium was washed from the cell plates and replaced with 20 μL of Assay Buffer. […] The reaction was stopped by the addition of 20 μL 0.1% Formic Acid to all wells. Sixty minutes later 30 μL 3 M deuterated AMP was added to all wells (as a control for volume addition to the mass spec). Plates were mixed on a plate shaker for 1 min and centrifugated (5 min 3000 RPMs no brakes).
Plates were run on a 4000 QTrap triple-quadrapole Mass spectrometer in positive ion mode coupled with a Biocius RapidFire 300is. […] Two ions (cAMP and deuterated AMP were measured using Multiple Reaction Monitoring (MRM) in positive ion mode and the area under the curve (AUC) was determined for each of the ions.
The data from the Mass Spec/Rapid Plate AUC for cAMP and deuterated AMP were imported to an Excel worksheet. A Normalized signal (NS) was generated for each well=(cAMP AUC for the well/deut AMP AUC for the well)*average deut AMP AUC for the plate). nM cAMP was calculated for each well from the cAMP standard curves located on each plate by first calculating the slope and deriving the intercept (b).
EC50 values were determined from a 4-point fit (Hill equation) of a single 11-point compound dosing.

The EC50 is the concentration giving half of the maximal effect. Read a low EC50 as greater potency. As for `COc1ccc(C2(C)CCCc3nc(SCc4c(F)cc(CCN5CCOCC5)cc4F)n(-c4ccc(F)cc4)c32)cc1OC` (stereo not drawn) [Example 112, 4-(4-(((7-(3,4-dimethoxyphenyl)-1-(4-fluorophenyl)-7-methyl-4,5,6,7-tetrahydro-1H-benzo[d]imidazol-2-yl)thio)methyl)-3,5-difluorophenethyl)morpholine], the EC50 on TGR5 (STC1 cell line) amounted to 130 nM; in experiment [1] it was 300 nM.
Taken in the same sequence, the figures for `COc1ccc(C2(C)CCCc3nc(SCc4c(Cl)cccc4Cl)n(-c4ccc(F)cc4)c32)cc1OC` (stereo not drawn) [Example 114, 2-((2,6-dichlorobenzyl)thio)-7-(3,4-dimethoxyphenyl)-1-(4-fluorophenyl)-7-methyl-4,5,6,7-tetrahydro-1H-benzo[d]imidazole] were 1640 nM and 25700 nM.
Taken in the same sequence, the figures for `COc1ccc(C2(C)CCCc3nc(SCc4c(F)cccc4[N+](=O)[O-])n(-c4ccc(F)cc4)c32)cc1OC` (stereo not drawn) [Example 115, 7-(3,4-dimethoxyphenyl)-2-((2-fluoro-6-nitrobenzyl)thio)-1-(4-fluorophenyl)-7-methyl-4,5,6,7-tetrahydro-1H-benzo[d]imidazole] were 220 nM and 2600 nM.
For `COc1ccc(C2(C)CCCc3nc(SCc4nccs4)n(-c4ccc(F)cc4)c32)cc1OC` (stereo not drawn) [Example 117, 2-(((7-(3,4-dimethoxyphenyl)-1-(4-fluorophenyl)-7-methyl-4,5,6,7-tetrahydro-1H-benzo[d]imidazol-2-yl)thio)methyl)thiazole] the same measures were 410 nM and 2650 nM.
As for `COc1cc(C2(C)CCCc3nc(SCc4c(F)cc(C(=O)O)cc4F)n(-c4ccc(F)cc4)c32)ccc1F` (stereo not drawn) [Example 120, 3,5-difluoro-4-(((7-(4-fluoro-3-methoxyphenyl)-1-(4-fluorophenyl)-7-methyl-4,5,6,7-tetrahydro-1H-benzo[d]imidazol-2-yl)thio)methyl)benzoic acid], the EC50 at TGR5 (STC1 cell line) was 1180 nM; in experiment [1] it was over 50000 nM.
For `COc1cc(C2(C)CCCc3nc(SCc4c(F)cc(-c5nnn[nH]5)cc4F)n(-c4ccc(F)cc4)c32)ccc1F` (stereo not drawn) [Example 121, 2-((2,6-difluoro-4-(1H-tetrazol-5-yl)benzyl)thio)-7-(4-fluoro-3-methoxyphenyl)-1-(4-fluorophenyl)-7-methyl-4,5,6,7-tetrahydro-1H-benzo[d]imidazole] the same measures were 3110 nM and over 50000 nM.
Taken in the same sequence, the figures for `COc1cc(C2(C)CCCc3nc(SCc4c(F)cc(C(=O)N5CCOCC5)cc4F)n(-c4ccc(F)cc4)c32)ccc1F` (stereo not drawn) [Example 122, (3,5-difluoro-4-(((7-(4-fluoro-3-methoxyphenyl)-1-(4-fluorophenyl)-7-methyl-4,5,6,7-tetrahydro-1H-benzo[d]imidazol-2-yl)thio)methyl)phenyl) (morpholino)methanone] were 90 nM and 18800 nM.
For `COc1cc(C2(C)CCCc3nc(SCc4c(F)cc(C(=O)NCCOCCOCCOCCO)cc4F)n(-c4ccc(F)cc4)c32)ccc1F` (stereo not drawn) [Example 123, 3,5-difluoro-4-(((7-(4-fluoro-3-methoxyphenyl)-1-(4-fluorophenyl)-7-methyl-4,5,6,7-tetrahydro-1H-benzo[d]imidazol-2-yl)thio)methyl)-N-(2-(2-(2-(2-hydroxyethoxy)ethoxy)ethoxy)ethyl) benzamide] the same measures were 50 nM and 17000 nM.
Regarding `COCCNC(=O)c1cc(F)c(CSc2nc3c(n2-c2ccc(F)cc2)C(C)(c2ccc(F)c(OC)c2)CCC3)c(F)c1` (stereo not drawn) [Example 124, 3,5-difluoro-4-(((7-(4-fluoro-3-methoxyphenyl)-1-(4-fluorophenyl)-7-methyl-4,5,6,7-tetrahydro-1H-benzo[d]imidazol-2-yl)thio)methyl)-N-(2-methoxyethyl)benzamide], the half-maximal effective concentration (EC50) at TGR5 (STC1 cell line) was 800 nM; in experiment [1], over 50000 nM.
Taken in the same sequence, the figures for `COc1cc(C2(C=O)CCCc3nc(SCc4c(F)cccc4Cl)n(-c4ccc(F)cc4)c32)ccc1Cl` (stereo not drawn) [Example 130, 4-(4-chloro-3-methoxyphenyl)-2-(2-chloro-6-fluorobenzylthio)-3-(4-fluorophenyl)-4,5,6,7-tetrahydro-3H-benzo[d]imidazole-4-carbaldehyde trifluoroacetic acid] were 14100 nM and over 50000 nM.
Taken in the same sequence, the figures for `COc1cc(C2OCCc3nc(SCc4c(F)cc(OCCOCCOCCCl)cc4F)n(-c4ccc(F)cc4)c32)ccc1Cl` (stereo not drawn) [Example 133, 4-(4-chloro-3-methoxyphenyl)-2-((4-(2-(2-(2-chloroethoxy)ethoxy)ethoxy)-2,6-difluorobenzyl)thio)-3-(4-fluorophenyl)-3,4,6,7-tetrahydropyrano[3,4-d]imidazole] were 6070 nM and over 50000 nM.
For `Cc1nc2ccc(C3OCCc4nc(SCc5c(F)cccc5Cl)n(-c5ccc(F)cc5)c43)cc2o1` (stereo not drawn) [Example 135, 2-((2-chloro-6-fluorobenzyl)thio)-3-(4-fluorophenyl)-4-(2-methylbenzo[d]oxazol-6-yl)-3,4,6,7-tetrahydropyrano[3,4-d]imidazole] the same measures were 3840 nM and 11000 nM.
Consider `C=C1COC(c2ccc(OC)c(OC)c2)c2c1nc(SCc1c(F)cccc1Cl)n2-c1ccc(F)cc1` (stereo not drawn) [Example 136, 2-((2-chloro-6-fluorobenzyl)thio)-4-(3,4-dimethoxyphenyl)-3-(4-fluorophenyl)-7-methylene-3,4,6,7-tetrahydropyrano[3,4-d]imidazole], for which the EC50 at TGR5 (STC1 cell line) was 1530 nM; in experiment [1], over 50000 nM.
Consider `C=C1COC(c2ccc(Cl)c(OC)c2)c2c1nc(SCc1c(F)cccc1Cl)n2-c1ccc(F)cc1` (stereo not drawn) [Example 137, 4-(4-chloro-3-methoxyphenyl)-2-((2-chloro-6-fluorobenzyl)thio)-3-(4-fluorophenyl)-7-methylene-3,4,6,7-tetrahydropyrano[3,4-d]imidazole], for which the half-maximal effective concentration (EC50) is 880 nM at TGR5 (STC1 cell line) and over 50000 nM in experiment [1].
Taken in the same sequence, the figures for `C=C1COC(c2ccc(F)c(OC)c2)c2c1nc(SCc1c(F)cccc1Cl)n2-c1ccc(F)cc1` (stereo not drawn) [Example 138, 4-(4-Fluoro-3-methoxyphenyl)-2-((2-chloro-6-fluorobenzyl)thio)-3-(4-fluorophenyl)-7-methylene-3,4,6,7-tetrahydropyrano[3,4-d]imidazole] were 3260 nM and over 50000 nM.
